Experiments:
[1] = Half life in dog plasma; format: ADME, organism-based, Canis lupus familiaris
[2] = biological target: T1, Voltage-gated inwardly rectifying potassium channel KCNH2 (Homo sapiens, UniProt Q12809); assay: Affinity for HERG voltage-gated potassium channel subunit Kv11.1
[3] = biological target: Vascular endothelial growth factor receptor 2 (Homo sapiens, UniProt P35968); assay: Inhibition of VEGF receptor 2 mediated phosphorylation of poly-Glu/Tyr (4:1)
[4] = Compound was tested for the inhibition of VEGF-stimulated mitogenesis as determined in human umbilical vein endothelial cells; format: functional, cell-based; conditions: endothelial cell
[5] = Plasma clearance in dogs; format: ADME, organism-based, Canis lupus familiaris; conditions: dog
[6] = Plasma clearance in dog after administration of 1 mg/kg iv; format: ADME, organism-based, Canis lupus familiaris; design: dose 1 mg/kg, route intravenous
[7] = Partition coefficient (logP); format: physicochemical; conditions: octanol/water
[8] = Volume distribution in rat after administration of 2 mg/kg iv; format: ADME, organism-based; design: dose 2 mg/kg, route intravenous; conditions: in vivo, read-out: Vss
[9] = Cmax in rat after administration of 2 mg/kg iv; format: ADME, organism-based; design: dose 2 mg/kg, route intravenous; conditions: in vivo
[10] = Oral bioavailability in dog (dose 1 mg/kg p.o.); format: ADME, organism-based, Canis lupus familiaris; conditions: in vivo
[11] = Half life in rat plasma after administration of 2 mg/kg iv; format: ADME, organism-based; design: dose 2 mg/kg, route intravenous
[12] = Cmax in monkey after administration of 1 mg/kg iv; format: ADME, organism-based; design: dose 1 mg/kg, route intravenous; conditions: cercopithecidae, in vivo
[13] = Half life in monkey plasma after administration of 1 mg/kg iv; format: ADME, organism-based; design: dose 1 mg/kg, route intravenous; conditions: cercopithecidae
[14] = Volume distribution in monkey after administration of 1 mg/kg iv; format: ADME, organism-based; design: dose 1 mg/kg, route intravenous; conditions: cercopithecidae, in vivo, read-out: Vss
[15] = Half life in dog plasma after administration of 1 mg/kg iv; format: ADME, organism-based, Canis lupus familiaris; design: dose 1 mg/kg, route intravenous
[16] = Plasma clearance in monkey after administration of 1 mg/kg iv; format: ADME, organism-based; design: dose 1 mg/kg, route intravenous; conditions: cercopithecidae
[17] = Oral bioavailability in rat (dose 10 mg/kg p.o.); format: ADME, organism-based; conditions: in vivo
[18] = Plasma clearance in rat after administration of 2 mg/kg iv; format: ADME, organism-based; design: dose 2 mg/kg, route intravenous
[19] = Volume distribution in dog after administration of 1 mg/kg iv; format: ADME, organism-based, Canis lupus familiaris; design: dose 1 mg/kg, route intravenous; conditions: in vivo, read-out: Vss
[20] = Oral bioavailability in monkey (dose 1 mg/kg p.o.); format: ADME, organism-based; conditions: cercopithecidae, in vivo
[21] = Cmax in dog after administration of 1 mg/kg iv; format: ADME, organism-based, Canis lupus familiaris; design: dose 1 mg/kg, route intravenous; conditions: in vivo
[22] = Oral bioavailability in rat after administration of 10 mg/kg po; format: ADME, organism-based; conditions: in vivo
[23] = Plasma clearance in dog after administration of 0.25 mg/kg iv; format: ADME, organism-based, Canis lupus familiaris; design: dose 0.25 mg/kg, route intravenous
[24] = biological target: T1, Voltage-gated inwardly rectifying potassium channel KCNH2; assay: Effect on prolongation of the heart rate-corrected QT interval; format: functional
[25] = Half life in dog plasma after administration of 0.25 mg/kg iv; format: ADME, organism-based, Canis lupus familiaris; design: dose 0.25 mg/kg, route intravenous

Sequence of Vascular endothelial growth factor receptor 2 (P35968 whole entry): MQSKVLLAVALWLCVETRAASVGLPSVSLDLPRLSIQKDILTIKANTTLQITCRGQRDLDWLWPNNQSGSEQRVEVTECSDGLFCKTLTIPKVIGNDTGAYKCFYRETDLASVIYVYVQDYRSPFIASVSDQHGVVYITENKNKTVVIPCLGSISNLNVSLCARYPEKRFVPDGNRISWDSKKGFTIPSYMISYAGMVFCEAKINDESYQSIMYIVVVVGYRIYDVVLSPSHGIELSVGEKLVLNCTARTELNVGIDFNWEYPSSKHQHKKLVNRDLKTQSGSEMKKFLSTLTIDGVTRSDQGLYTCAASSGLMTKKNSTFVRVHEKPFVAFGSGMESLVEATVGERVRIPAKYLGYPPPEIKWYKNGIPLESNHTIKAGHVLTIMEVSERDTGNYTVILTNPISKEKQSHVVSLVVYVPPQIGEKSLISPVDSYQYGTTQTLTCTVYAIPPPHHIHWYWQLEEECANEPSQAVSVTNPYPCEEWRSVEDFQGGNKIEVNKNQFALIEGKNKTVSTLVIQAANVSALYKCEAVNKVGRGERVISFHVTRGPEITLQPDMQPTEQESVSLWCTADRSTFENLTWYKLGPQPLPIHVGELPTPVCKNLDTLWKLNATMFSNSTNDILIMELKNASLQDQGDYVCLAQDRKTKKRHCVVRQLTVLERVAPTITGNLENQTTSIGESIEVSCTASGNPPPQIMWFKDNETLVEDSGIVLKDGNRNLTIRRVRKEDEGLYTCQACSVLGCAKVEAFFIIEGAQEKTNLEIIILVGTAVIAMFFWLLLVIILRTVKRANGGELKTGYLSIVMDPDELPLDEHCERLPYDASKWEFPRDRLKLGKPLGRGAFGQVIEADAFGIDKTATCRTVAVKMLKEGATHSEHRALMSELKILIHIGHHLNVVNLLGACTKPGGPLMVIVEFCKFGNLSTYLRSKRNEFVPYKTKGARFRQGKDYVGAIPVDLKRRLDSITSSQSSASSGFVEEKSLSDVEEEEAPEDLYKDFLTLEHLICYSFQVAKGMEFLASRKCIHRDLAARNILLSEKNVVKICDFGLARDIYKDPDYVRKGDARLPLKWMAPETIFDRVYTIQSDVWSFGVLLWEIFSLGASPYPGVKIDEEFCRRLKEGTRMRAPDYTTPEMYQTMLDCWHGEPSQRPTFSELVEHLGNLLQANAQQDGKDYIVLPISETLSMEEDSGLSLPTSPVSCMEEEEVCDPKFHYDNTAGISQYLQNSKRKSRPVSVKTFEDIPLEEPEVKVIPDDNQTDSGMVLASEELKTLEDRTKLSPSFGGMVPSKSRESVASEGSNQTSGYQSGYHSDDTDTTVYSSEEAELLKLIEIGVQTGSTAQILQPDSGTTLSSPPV
T1 sequence (Q12809 whole entry): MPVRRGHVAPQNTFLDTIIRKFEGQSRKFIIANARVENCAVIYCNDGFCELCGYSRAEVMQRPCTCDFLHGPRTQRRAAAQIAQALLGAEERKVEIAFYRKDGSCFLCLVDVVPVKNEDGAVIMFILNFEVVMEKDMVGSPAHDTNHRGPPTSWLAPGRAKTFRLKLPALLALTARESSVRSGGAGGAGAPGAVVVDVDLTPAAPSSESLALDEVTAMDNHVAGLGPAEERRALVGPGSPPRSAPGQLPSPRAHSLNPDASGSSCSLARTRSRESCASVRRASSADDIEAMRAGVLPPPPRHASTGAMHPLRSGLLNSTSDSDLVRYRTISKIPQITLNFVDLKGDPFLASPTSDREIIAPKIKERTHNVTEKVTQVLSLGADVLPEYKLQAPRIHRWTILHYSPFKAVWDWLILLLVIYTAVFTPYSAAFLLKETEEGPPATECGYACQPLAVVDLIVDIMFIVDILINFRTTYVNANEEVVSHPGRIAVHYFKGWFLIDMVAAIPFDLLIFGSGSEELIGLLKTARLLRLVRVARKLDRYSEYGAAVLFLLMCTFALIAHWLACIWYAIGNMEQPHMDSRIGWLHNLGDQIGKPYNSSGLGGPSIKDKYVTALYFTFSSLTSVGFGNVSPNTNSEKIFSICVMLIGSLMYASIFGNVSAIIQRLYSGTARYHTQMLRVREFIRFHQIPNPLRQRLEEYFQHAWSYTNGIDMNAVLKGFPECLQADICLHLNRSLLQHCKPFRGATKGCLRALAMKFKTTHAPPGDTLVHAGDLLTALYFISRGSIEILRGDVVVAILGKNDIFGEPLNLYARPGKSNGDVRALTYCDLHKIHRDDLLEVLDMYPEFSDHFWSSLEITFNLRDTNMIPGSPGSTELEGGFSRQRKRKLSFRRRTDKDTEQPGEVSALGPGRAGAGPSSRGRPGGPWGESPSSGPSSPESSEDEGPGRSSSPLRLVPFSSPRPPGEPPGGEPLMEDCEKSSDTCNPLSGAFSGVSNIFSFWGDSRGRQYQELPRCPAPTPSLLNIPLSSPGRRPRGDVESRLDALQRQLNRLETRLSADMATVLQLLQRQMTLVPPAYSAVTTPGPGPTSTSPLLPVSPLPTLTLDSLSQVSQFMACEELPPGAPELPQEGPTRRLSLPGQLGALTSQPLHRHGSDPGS

| SMILES | half-life [1] [h] | IP [2] [nM] | IC50 [3] [nM] | IC50 [4] [nM] | clearance [5] [mL/min/kg] | logP [7] | other results |
| --- | --- | --- | --- | --- | --- | --- | --- |
| NC1CCN(C(=O)c2ccc3[nH]c(-c4cc5ccccc5nc4O)cc3c2)C1 (stereo not given) | 1.1 | > 10000 | 5 | 4 | 26 | – | – |
| CN1CCN(S(=O)(=O)c2ccc3[nH]c(-c4cc5ccccc5nc4O)cc3c2)CC1 | 6.4 | 3440 | 10 | 31 | 0.5 | 3 | clearance [6]: 0.5 mL/min/kg; Vd [8]: 0.9 L/kg; Cmax [9]: 4800 nM; bioavailability [10]: 63%; half-life [11]: 1.1 h; Cmax [12]: 630 nM; half-life [13]: 3.4 h; Vd [14]: 2.1 L/kg; half-life [15]: 6.4 h; clearance [16]: 12 mL/min/kg; bioavailability [17]: 54%; clearance [18]: 29 mL/min/kg; Vd [19]: 0.3 L/kg; bioavailability [20]: 40%; Cmax [21]: 5200 nM |
| O=c1[nH]c2ccccc2cc1-c1nc2ccccc2[nH]1 | – | – | – | 1140 | – | – | – |
| COCCN(C)CCOc1ccc2[nH]c(-c3cc4ccccc4nc3O)cc2c1 | < 1 | 1950 | 7 | 8 | > 50 | 3.1 | Vd [8]: 5 L/kg; bioavailability [22]: 20%; clearance [23]: > 50 mL/min/kg; Cmax [9]: 470 nM; EC10 [24]: 1900 nM; half-life [11]: 1.4 h; clearance [18]: 56 mL/min/kg; half-life [25]: < 1 h |
| O=C(O)C1CCN(CCCOc2ccc3[nH]c(-c4cc5ccccc5nc4O)cc3c2)CC1 | 3.2 | 3050 | 8 | 41 | 7.7 | 0.9 | EC10 [24]: 5200 nM |
| O=c1[nH]c2ccccc2cc1-c1cc2cc(S(=O)(=O)N3CCNCC3)ccc2[nH]1 | 12.7 | 2450 | 11 | 30 | 3.5 | 2.3 | – |
| CC(=O)N1CCN(CCOc2ccc3[nH]c(-c4cc5ccccc5nc4O)cc3c2)CC1 | 2.2 | 520 | 4 | 4 | 7.8 | 3.2 | – |
| O=C(c1ccc2[nH]c(-c3cc4ccccc4nc3O)cc2c1)N1CCNCC1 | 4.2 | > 10000 | 5 | 4 | 27 | 1.7 | – |
| O=c1[nH]c2ccccc2cc1-c1cc2ccccc2[nH]1 | – | – | – | 184 | – | – | – |
| NC1CCN(S(=O)(=O)c2ccc3[nH]c(-c4cc5ccccc5nc4O)cc3c2)C1 (stereo not given) | 3.4 | 2650 | 16 | 27 | 11 | – | – |
| CN1CCN(C(=O)c2ccc3[nH]c(-c4cc5ccccc5nc4O)cc3c2)CC1 | 2.4 | 10800 | 5 | 4 | 19 | 2.6 | clearance [6]: 19 mL/min/kg; Vd [8]: 0.7 L/kg; Cmax [9]: 5790 nM; bioavailability [10]: 15%; half-life [11]: 2.3 h; Cmax [12]: 1250 nM; half-life [13]: 2.8 h; Vd [14]: 0.9 L/kg; half-life [15]: 2.4 h; clearance [16]: 3.4 mL/min/kg; bioavailability [17]: 31%; clearance [18]: 3.8 mL/min/kg; Vd [19]: 2.9 L/kg; bioavailability [20]: 46%; Cmax [21]: 160 nM |
| O=C(NC1CCNC1)c1ccc2[nH]c(-c3cc4ccccc4nc3O)cc2c1 (stereo not given) | 1.7 | 13700 | 6 | 53 | 38 | – | – |
| Oc1nc2ccccc2cc1-c1cc2cc(OCCN3CCCCC3)ccc2[nH]1 | 1.3 | 980 | 4 | 17 | > 50 | 3.7 | EC10 [24]: 640 nM |
| O=c1[nH]c2ccccc2cc1-c1cc2cc(S(=O)(=O)NC3CCNC3)ccc2[nH]1 (stereo not given) | 9.5 | 2835 | 14 | 97 | 0.4 | – | – |
